Measurements: US12643884B2, “1-(2-(4-cyclopropyl-1H-1,2,3-triazol-1-yl)acetyl)-4-hydroxypyrrolidine-2-carboxa|mide derivatives as VHL inhibitors for the treatment of anemia” (Genentech, Inc., priority 2020, dated 2026)

Tests used:
[1] = molecular target: T1, NanoLuc VHL fusion protein stably expressed in HEK 293 cells (Homo sapiens, UniProt P40337); assay: VHL HEK-293 BRET Assay (VHL NanoBRET Target Engagement Assay); format: cell-based; settings: for IC50: HEK293 cells, nanoBRET, geometric mean where more than one measurement, read-out: VHL binding in cells (HEK293 nanoBRET); for Ratio cell permeability shift: ratio of nanoBRET in cells to nanoBRET +Digitonin
T1 construct: expressed in transfected cells
Experimental: The VHL NanoBRET™ Target Engagement Assay analyzes the apparent affinity of test compounds for VHL in cells by competitive displacement of a VHL NanoBRET™ tracer reversibly bound to a NanoLuc® VHL fusion protein stably expressed in the cells.
Test compounds were transferred to the assay plate (384 Well White Non-Binding Corning Assay Plates (Corning-3574)) using an Echo 555 Liquid Handler (Labcyte) in 2.5 nL increments and, as appropriate, intermediate stock concentrations of compounds, in order to prepare a titration series. 50 nL of control compound (10 mM; parental unlabeled VHL antagonist; see structure below) and 50 nL of DMSO (negative control) were dispensed into the appropriate control wells. DMSO was backfilled to a final volume of 50 nL as required. 50 nl per well of 1 mM VHL NanoBRET™ Tracer in DMSO (NanoBRET™ Tracer-PEG2-590 (see structure below)) was transferred into each well using an Echo 555 (ultimately yielding a final concentration of 1 uM). HEK 293 RT VHL-NanoLuc® stable cells were cultured in DMEM High Glucose with Pyruvate, 10% fetal bovine serum, 2 mg/mL of Geneticin Selective Antibiotic (50 mg/ml) and 2 mM HEPES (1 M). Cells were seeded in Opti-MEM (Life Technologies-11058-021), 1.7×10^5 cells/mL, 40 μl per well into the assay plate, centrifuged at 500 rpm for 30 seconds and incubated for 2 hours. Max Signal control wells consisted of DMSO only treated wells. Minimum Signal control wells contained of 10 uM parental unlabeled VHL antagonist (control compound—see structure below). 3× Complete Substrate plus Inhibitor Solution was prepared in Opti-MEM (consists of a 1:166 dilution of NanoBRET™ Nano-Glo® Substrate plus a 1:500 dilution of Extracellular NanoLuc® Inhibitor in Opti-MEM), and 20 ul was dispensed into each well of the 384-well plate and centrifuged at 1000 rpm for 1 minute, then incubated for 2 minutes at room temperature. Background Signal control wells were prepared without tracer for background correction steps.
Plates were read using a PerkinElmer Envision Reader (model 2104-0020) equipped with Luminescence option (Mirror: BRET2 Enh (PE Barcode 659), Emission Filter: Omega 610LP (Barcode 504), 2nd Emission Filter: Umbelliferone 460 (Barcode 207), Measurement height: 6.5 mm, Measurement time: 1 s). The raw BRET ratio values were calculated by dividing the acceptor emission value (610 nm) by the donor emission value (460 nm) for each sample. To correct for background, the BRET ratio in the absence of tracer (average of no-tracer control samples) was subtracted from the BRET ratio of each sample. Raw BRET units were converted to milliBRET units (mBU) by multiplying each raw BRET value by 1,000. The normalized NanoBRET™ signal was calculated relative to the Max Signal control wells (DMSO treated control wells) and the Minimum Signal control wells. Percentage inhibition was calculated relative to the Minimum Signal control and Maximum Signal control wells. IC50 values were derived by four parameter curve fitting using the Robust method.

VHL = molecular target: T2, VHL (Homo sapiens, UniProt P40337); assay: VHL nanoBRET (+Digitonin); format: cell-based
T2 construct: expressed in transfected cells
T2 sequence (P40337 whole entry): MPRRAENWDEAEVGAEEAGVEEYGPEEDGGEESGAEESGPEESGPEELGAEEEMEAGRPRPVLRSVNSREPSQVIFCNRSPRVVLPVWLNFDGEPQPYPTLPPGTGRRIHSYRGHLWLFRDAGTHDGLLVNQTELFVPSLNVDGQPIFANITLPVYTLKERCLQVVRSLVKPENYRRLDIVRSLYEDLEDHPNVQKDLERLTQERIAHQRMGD
T2 sequence (Q15370 whole entry partner): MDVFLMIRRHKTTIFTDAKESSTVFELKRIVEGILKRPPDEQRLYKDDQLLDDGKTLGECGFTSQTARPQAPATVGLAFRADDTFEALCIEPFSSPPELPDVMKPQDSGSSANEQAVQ
T2 sequence (Q15369 whole entry partner): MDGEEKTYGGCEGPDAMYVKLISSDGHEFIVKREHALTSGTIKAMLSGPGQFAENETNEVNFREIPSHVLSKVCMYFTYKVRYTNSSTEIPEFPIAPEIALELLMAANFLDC

T1 sequence (P40337 whole entry, the tested form may be a part): as the sequence (P40337 whole entry) above
T1 sequence (Q15370 whole entry partner, the tested form may be a part): as the sequence (Q15370 whole entry partner) above
T1 sequence (Q15369 whole entry partner, the tested form may be a part): as the sequence (Q15369 whole entry partner) above

Compound	IC50 [1] [µM]	Ratio cell permeability shift [1]	EC50 (VHL) [µM]
CC(C)NC(=O)[C@@H]1C[C@@H](O)CN1C(=O)[C@@H](n1cc(C2CC2)nn1)C(C)(C)C [Final product from Example S15, (2S,4R)-1-((S)-2-(4-cyclopropyl-1H-1,2,3-triazol-1-yl)-3,3-dimethylbutanoyl)-4-hydroxy-N-isopropylpyrrolidine-2-carboxamide]	9.09	1.52	5.99
CC(C)(C)[C@@H](C(=O)N1C[C@H](O)C[C@H]1C(=O)NCCF)n1cc(C2CC2)nn1 [Final product from Example S16, (2S,4R)-1-((S)-2-(4-cyclopropyl-1H-1,2,3-triazol-1-yl)-3,3-dimethylbutanoyl)-N-(2-fluoroethyl)-4-hydroxypyrrolidine-2-carboxamide]	2.43	0.68	3.56
CCNC(=O)[C@@H]1C[C@@H](O)CN1C(=O)[C@@H](n1cc(C2CC2)nn1)C(C)(C)C [Final product from Example S17, (2S,4R)-1-((S)-2-(4-cyclopropyl-1H-1,2,3-triazol-1-yl)-3,3-dimethylbutanoyl)-N-ethyl-4-hydroxypyrrolidine-2-carboxamide]	4.15	1.07	3.89
CC(C)(C)[C@@H](C(=O)N1C[C@H](O)C[C@H]1C(=O)NC1(C(F)(F)F)CC1)n1cc(C2CC2)nn1 [Final product from Example S18, (2S, 4R)-1-((S)-2-(4-cyclopropyl-1H-1,2,3-triazol-1-yl)-3,3-dimethylbutanoyl)-4-hydroxy-N-(1-(trifluoromethyl)cyclopropyl)pyrrolidine-2-carboxamide]	4.99	1	4.99
CNC(=O)[C@@H]1C[C@@H](O)CN1C(=O)[C@H](C(C)C)n1cc(-c2ccco2)nn1 [Final product from Example S19, (2S, 4R)-1-((S)-2-(4-(furan-2-yl)-1H-1,2,3-triazol-1-yl)-3-methylbutanoyl)-4-hydroxy-N-methylpyrrolidine-2-carboxamide]	0.8	0.90	0.89
CNC(=O)[C@@H]1C[C@@H](O)CN1C(=O)[C@H](C(C)C)n1cc(C2(C)CC2)nn1 [Final product from Example S20, (2S,4R)-4-hydroxy-N-methyl-1-((S)-3-methyl-2-(4-(1-methylcyclopropyl)-1H-1,2,3-triazol-1-yl)butanoyl)pyrrolidine-2-carboxamide]	2.12	1.71	1.24
CNC(=O)[C@@H]1C[C@@H](O)CN1C(=O)[C@H](C(C)C)n1cc(C2CCC2)nn1 [Final product from Example S21, (2S,4R)-1-((S)-2-(4-cyclobutyl-1H-1,2,3-triazol-1-yl)-3-methylbutanoyl)-4-hydroxy-N-methylpyrrolidine-2-carboxamide]	2.83	0.86	3.29
CNC(=O)[C@@H]1C[C@@H](O)CN1C(=O)[C@H](C(C)C)n1cc(C2CCCC2)nn1 [Final product from Example S22, (2S, 4R)-1-[(2S)-2-(4-cyclopentyltriazol-1-yl)-3-methyl-butanoyl]-4-hydroxy-N-methyl-pyrrolidine-2-carboxamide]	3.21	1.15	2.78
CNC(=O)[C@@H]1C[C@@H](O)CN1C(=O)C(=C(C)C)n1cc(C2CC2)nn1 [Final product from Example S27, (2S, 4R)-1-[2-(4-cyclopropyltriazol-1-yl)-3-methyl-but-2-enoyl]-4-hydroxy-N-methyl-pyrrolidine-2-carboxamide]	–	0.96	4.94
